Experimental data published in patent US20210085640A1, “ACYLATED CATECHIN POLYPHENOLS AND METHODS OF THEIR USE FOR THE TREATMENT OF CANCER” (Flagship Pioneering Innovations V, Inc., priority 2018, published 2021).
pIC50: −log10 of the molar value.

Experiments:
Format in all cases: cell-based
[1] = test system: PC-3 prostate cancer cells; test: Cancer cell survival (CellTiter-Glo), PC-3; details: PC-3 cells, 72 h
Summary of the method: (§1)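 Luminescent ATP read-out (CellTiter-Glo) after 72 h compound exposure at 37 C/5% CO2. Survival % is calculated against untreated cells minus medium background, and IC50 is taken from nine concentrations run in triplicate. Plating density was 4×10^3 cells/well with overnight attachment beforehand.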

[2] = test system: A549 lung cancer cells; test: Cancer cell survival (CellTiter-Glo), A549; details: 72 h
Summary of the method: as §1

[3] = test system: T24 bladder cancer cells; test: Cancer cell survival (CellTiter-Glo), T24; details: 72 h
Summary of the method: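 Viability by CellTiter-Glo after 72 h compound treatment of T24 bladder cancer cells (4×10^3/well, plated the night before), nine concentration levels in triplicate. Percent survival normalised to untreated cells minus medium background, from which IC50 was determined.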

[4] = test system: AGS stomach cancer cells; test: Cancer cell survival (CellTiter-Glo), AGS; set-up: Cell survival at given concentration: unit not given here
Summary of the method: as §1

[5] = test system: Daudi lymphoma cancer cells; test: Cancer cell survival (CellTiter-Glo), Daudi; details: 72 h
Summary of the method: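 Daudi cells (4×10^3/well) were exposed for 72 h at 37 °C to nine concentrations of compound, added as 10× solutions spanning 1 μM–10 mM (fatty acids) or 100 nM–1 mM (others). CellTiter-Glo luminescence gave % survival versus untreated, medium-blank corrected; IC50 derived.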

[6] = test system: A-431 skin cancer cells; test: Cancer cell survival (CellTiter-Glo), A-431; set-up: Cell survival at given concentration: unit not given here; details: A-431 cells, 72 h
Summary of the method: as §1

[7] = test system: MCF7 breast cancer cells; test: Cancer cell survival (CellTiter-Glo), MCF7; details: 72 h
Summary of the method: as §1

[8] = test system: HCT 116 colorectal cancer cells; test: Cancer cell survival (CellTiter-Glo), HCT 116; details: HCT 116 cells, 72 h
Summary of the method: as §1

O=c1oc2cc(O)ccc2c2cc(O)c(O)cc12 [urolithin C]
Cell survival at given concentration ([1]; 101 nM): 1.03
Cell survival at given concentration ([1]; 318 nM): 1.00
Cell survival at given concentration ([1]; 1 μM): 1.04
Cell survival at given concentration ([1]; 3 μM): 1.01
Cell survival at given concentration ([1]; 10 μM): 1.07
Cell survival at given concentration ([1]; 32 μM): 0.93
Cell survival at given concentration ([1]; 100 μM): 0.08
Cell survival at given concentration ([1]; 316 μM): 0.04
Cell survival at given concentration ([1]; 1000 μM): 0.03
pIC50 ([1]; Table 8.1): 4.28
Cell survival at given concentration ([2]; 101 nM): 0.99
Cell survival at given concentration ([2]; 318 nM): 0.99
Cell survival at given concentration ([2]; 1 μM): 1.02
Cell survival at given concentration ([2]; 3 μM): 1.04
Cell survival at given concentration ([2]; 10 μM): 1.04
Cell survival at given concentration ([2]; 32 μM): 1.02
Cell survival at given concentration ([2]; 100 μM): 0.36
Cell survival at given concentration ([2]; 316 μM): 0.16
Cell survival at given concentration ([2]; 1000 μM): 0.12
pIC50 ([2]; Table 7.1): 4.03
Cell survival at given concentration ([3]; 101 nM): 1.00
Cell survival at given concentration ([3]; 318 nM): 0.94
Cell survival at given concentration ([3]; 1 μM): 0.96
Cell survival at given concentration ([3]; 3 μM): 0.96
Cell survival at given concentration ([3]; 10 μM): 0.93
Cell survival at given concentration ([3]; 32 μM): 0.37
Cell survival at given concentration ([3]; 100 μM): 0.12
Cell survival at given concentration ([3]; 316 μM): 0.08
Cell survival at given concentration ([3]; 1000 μM): 0.07
pIC50 ([3]; Table 3.1, read-out: 1050): 4.58
Cell survival at given concentration ([4]; 101 nM): 0.98
Cell survival at given concentration ([4]; 318 nM): 0.99
Cell survival at given concentration ([4]; 1 μM, Table 10.1): 0.98
Cell survival at given concentration ([4]; 3 μM, Table 10.1): 0.99
Cell survival at given concentration ([4]; 10 μM, Table 10.1): 1.02
Cell survival at given concentration ([4]; 32 μM, Table 10.1): 0.86
Cell survival at given concentration ([4]; 100 μM, Table 10.1): 0.15
Cell survival at given concentration ([4]; 316 μM): 0.04
Cell survival at given concentration ([4]; 1000 μM): 0.02
pIC50 ([4]; Table 10.1): 4.25
Cell survival at given concentration ([5]; 101 nM): 0.99
Cell survival at given concentration ([5]; 318 nM): 0.99
Cell survival at given concentration ([5]; 1 μM): 1.00
Cell survival at given concentration ([5]; 3 μM): 1.00
Cell survival at given concentration ([5]; 10 μM): 0.89
Cell survival at given concentration ([5]; 32 μM): 0.36
Cell survival at given concentration ([5]; 100 μM): 0.18
Cell survival at given concentration ([5]; 316 μM): 0.16
Cell survival at given concentration ([5]; 1000 μM): 0.07
pIC50 ([5]; Table 4.1): 4.62
Cell survival at given concentration ([6]; 101 nM): 1.02
Cell survival at given concentration ([6]; 318 nM): 1.02
Cell survival at given concentration ([6]; 1 μM): 1.02
Cell survival at given concentration ([6]; 3 μM): 1.03
Cell survival at given concentration ([6]; 10 μM): 1.02
Cell survival at given concentration ([6]; 32 μM): 0.95
Cell survival at given concentration ([6]; 100 μM): 0.34
Cell survival at given concentration ([6]; 316 μM): 0.20
Cell survival at given concentration ([6]; 1000 μM): 0.06
pIC50 ([6]; Table 9.1): 4.12
Cell survival at given concentration ([7]; 101 nM): 0.97
Cell survival at given concentration ([7]; 318 nM): 0.99
Cell survival at given concentration ([7]; 1 μM): 0.97
Cell survival at given concentration ([7]; 3 μM): 1.02
Cell survival at given concentration ([7]; 10 μM): 1.07
Cell survival at given concentration ([7]; 32 μM): 0.76
Cell survival at given concentration ([7]; 100 μM): 0.22
Cell survival at given concentration ([7]; 316 μM): 0.21
Cell survival at given concentration ([7]; 1000 μM): 0.20
pIC50 ([7]; Table 5.1): 4.46
Cell survival at given concentration ([8]; 101 nM): 1.00
Cell survival at given concentration ([8]; 318 nM): 0.99
Cell survival at given concentration ([8]; 1 μM): 1.00
Cell survival at given concentration ([8]; 3 μM): 0.99
Cell survival at given concentration ([8]; 10 μM): 0.94
Cell survival at given concentration ([8]; 32 μM): 0.34
Cell survival at given concentration ([8]; 100 μM): 0.02
Cell survival at given concentration ([8]; 316 μM): 0.01
Cell survival at given concentration ([8]; 1000 μM): 0.01
pIC50 ([8]; Table 6.1): 4.59
